{"source": "patent US20110054216A1", "about": "“NOVEL PROCESS FOR MAKING (2R)-(3-AMINO-2-FLUOROPROPYL)PHOSPHINIC ACID FORM A” (priority 2007, published 2011)", "experiment": "isoelectric point of the zwitterion", "type": "physicochemical", "conditions": "pH at which it may be crystallised", "description": "(2R)-(3-amino-2-fluoropropyl)phosphinic acid is a zwitterion, that may be crystallised at the isoelectric point, in this case approximately at a pH of 5.3. As the reaction is performed during acidic conditions, the protonated species of (2R)-(3-amino-2-fluoropropyl)phosphinic acid is formed. After completed reaction, the pH is adjusted to 5-6 by addition of a base in order to isolate (2R)-(3-amino-2-fluoropropyl)phosphinic acid crude as the zwitterion. The solution of (2R)-(3-amino-2-fluoropropyl)phosphinic acid works as a buffer solution and the amount of base added to reach the set pH-interval (5-6) is can be varied in the range of from 1.8-2.8 equivalents.", "data": [{"smiles": "NC[C@@H](F)C[PH](=O)O", "note": "[(2R)-(3-amino-2-fluoropropyl)phosphinic acid]", "values": [{"measurement": "isoelectric point (pH)", "result": "~5.3"}]}]}
